Results from ChEMBL document CHEMBL1144646, “Imidazole moiety replacements in the 3-(1H-benzo[d]imidazol-2-yl)pyridin-2(1H)-one inhibitors of insulin-like growth factor receptor-1 (IGF-1R) to improve cytochrome P450 profile” (Bioorg Med Chem Lett, 2007).
pIC50: −log10 of the molar value.

Assays:
Cytochrome P450 1A2 = target: T1, Cytochrome P450 1A2 (Homo sapiens, UniProt P05177); assay: Inhibition of CYP1A2 in microsomes; format: ADME
T1 sequence (P05177 whole entry): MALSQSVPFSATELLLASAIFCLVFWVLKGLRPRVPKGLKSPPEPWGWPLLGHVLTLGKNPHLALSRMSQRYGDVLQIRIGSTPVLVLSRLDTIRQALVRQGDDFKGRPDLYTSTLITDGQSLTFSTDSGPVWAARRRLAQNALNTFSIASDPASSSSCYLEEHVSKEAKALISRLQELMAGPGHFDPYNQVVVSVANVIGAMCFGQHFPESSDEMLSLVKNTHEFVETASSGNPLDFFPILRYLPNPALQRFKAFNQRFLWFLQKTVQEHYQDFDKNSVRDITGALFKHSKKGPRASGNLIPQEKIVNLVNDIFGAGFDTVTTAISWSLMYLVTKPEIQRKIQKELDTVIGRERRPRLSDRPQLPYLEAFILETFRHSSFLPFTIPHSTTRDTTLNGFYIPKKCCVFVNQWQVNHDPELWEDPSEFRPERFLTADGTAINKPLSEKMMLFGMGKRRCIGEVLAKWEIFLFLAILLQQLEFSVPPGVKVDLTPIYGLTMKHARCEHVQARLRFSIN

Cytochrome P450 3A4 = Cytochrome P450 3A4 (Homo sapiens, UniProt P08684); assay: Inhibition of CYP3A4 in microsomes
Cytochrome P450 2C9 = Cytochrome P450 2C9 (Homo sapiens, UniProt P11712); assay: Inhibition of CYP2C9 in microsomes; format: ADME
Cytochrome P450 2C19 = Cytochrome P450 2C19 (Homo sapiens, UniProt P33261); assay: Inhibition of CYP2C19 in microsomes; format: ADME
Cytochrome P450 2D6 = Cytochrome P450 2D6 (Homo sapiens, UniProt P10635); assay: Inhibition of CYP2D6 in microsomes; format: ADME
Cytochrome P450 2D6, sequence (P10635 whole entry): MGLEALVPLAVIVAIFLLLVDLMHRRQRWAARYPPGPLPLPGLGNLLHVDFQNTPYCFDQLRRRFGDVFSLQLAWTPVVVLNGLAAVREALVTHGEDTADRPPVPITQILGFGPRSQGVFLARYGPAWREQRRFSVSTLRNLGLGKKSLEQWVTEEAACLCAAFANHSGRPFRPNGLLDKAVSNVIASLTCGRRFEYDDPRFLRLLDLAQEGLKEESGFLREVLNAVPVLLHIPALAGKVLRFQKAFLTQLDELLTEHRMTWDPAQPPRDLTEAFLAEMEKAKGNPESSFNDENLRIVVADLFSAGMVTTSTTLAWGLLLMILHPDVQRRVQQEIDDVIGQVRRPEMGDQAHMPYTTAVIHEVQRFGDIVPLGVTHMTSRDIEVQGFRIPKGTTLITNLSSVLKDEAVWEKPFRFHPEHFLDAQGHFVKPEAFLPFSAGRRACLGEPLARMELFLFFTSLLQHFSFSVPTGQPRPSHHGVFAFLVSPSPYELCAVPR

Cytochrome P450 2C19, sequence (P33261 whole entry): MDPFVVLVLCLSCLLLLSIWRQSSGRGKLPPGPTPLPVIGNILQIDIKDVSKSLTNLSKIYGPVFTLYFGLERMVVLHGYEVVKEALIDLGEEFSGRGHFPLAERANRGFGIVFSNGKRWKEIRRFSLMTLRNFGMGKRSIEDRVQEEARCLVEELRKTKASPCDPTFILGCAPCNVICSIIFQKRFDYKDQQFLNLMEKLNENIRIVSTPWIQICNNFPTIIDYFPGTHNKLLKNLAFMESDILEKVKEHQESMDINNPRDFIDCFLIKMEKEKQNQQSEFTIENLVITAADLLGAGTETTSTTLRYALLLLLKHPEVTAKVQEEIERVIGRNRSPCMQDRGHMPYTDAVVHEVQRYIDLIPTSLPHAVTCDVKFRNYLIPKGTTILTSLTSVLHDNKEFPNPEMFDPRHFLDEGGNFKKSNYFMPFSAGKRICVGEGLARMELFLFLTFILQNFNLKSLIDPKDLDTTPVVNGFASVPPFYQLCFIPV
Cytochrome P450 2C9, sequence (P11712 whole entry): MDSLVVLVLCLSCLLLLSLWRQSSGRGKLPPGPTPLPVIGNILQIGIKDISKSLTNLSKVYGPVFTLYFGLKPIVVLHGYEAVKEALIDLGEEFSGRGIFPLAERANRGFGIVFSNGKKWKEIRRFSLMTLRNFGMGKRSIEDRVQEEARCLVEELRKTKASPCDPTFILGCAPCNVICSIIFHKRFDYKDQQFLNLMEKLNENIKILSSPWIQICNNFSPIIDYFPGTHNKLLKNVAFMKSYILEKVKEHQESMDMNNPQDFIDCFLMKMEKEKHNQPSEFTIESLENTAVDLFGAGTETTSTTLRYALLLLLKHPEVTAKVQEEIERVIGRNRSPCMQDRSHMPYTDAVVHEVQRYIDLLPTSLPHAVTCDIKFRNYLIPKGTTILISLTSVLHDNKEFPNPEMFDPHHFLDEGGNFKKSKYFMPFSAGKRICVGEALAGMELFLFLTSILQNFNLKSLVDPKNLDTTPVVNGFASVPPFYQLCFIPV
Cytochrome P450 3A4, sequence (P08684 whole entry): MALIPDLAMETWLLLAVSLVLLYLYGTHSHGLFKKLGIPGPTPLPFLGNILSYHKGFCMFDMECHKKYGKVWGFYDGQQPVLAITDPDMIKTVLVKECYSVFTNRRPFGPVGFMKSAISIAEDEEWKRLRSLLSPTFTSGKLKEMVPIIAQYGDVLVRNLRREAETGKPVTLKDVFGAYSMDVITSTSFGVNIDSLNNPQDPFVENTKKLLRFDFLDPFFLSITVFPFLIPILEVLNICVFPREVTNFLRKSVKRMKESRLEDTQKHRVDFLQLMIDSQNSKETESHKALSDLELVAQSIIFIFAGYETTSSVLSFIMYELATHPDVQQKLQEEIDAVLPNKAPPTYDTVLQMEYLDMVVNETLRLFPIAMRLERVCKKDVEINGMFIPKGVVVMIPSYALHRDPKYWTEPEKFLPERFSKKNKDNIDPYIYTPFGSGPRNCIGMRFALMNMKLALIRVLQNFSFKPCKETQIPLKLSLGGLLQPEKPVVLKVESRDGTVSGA

pIC50 (Cytochrome P450 1A2)	pIC50 (Cytochrome P450 3A4)	pIC50 (Cytochrome P450 2C9)	pIC50 (Cytochrome P450 2C19)	SMILES	pIC50 (Cytochrome P450 2D6)
4.96	4.89	4.33	5.29	Cc1cc(C2=NC(C)(C)CN2)cc2[nH]c(-c3c(NCC(O)c4cccc(Cl)c4)cc[nH]c3=O)nc12 (configuration not stated)	
4.70	4.80	4.00	5.07	Cc1cc(C2=NCCCN2)cc2[nH]c(-c3c(NCC(O)c4cccc(Cl)c4)cc[nH]c3=O)nc12 (configuration not stated)	
6.42	6.15	5.82	6.59	Cc1cccc2[nH]c(-c3c(NCC(O)c4cccc(Cl)c4)cc[nH]c3=O)nc12 (configuration not stated)	
4.68	5.43	5.54	5.68	CNC(=O)c1cc(C)c2nc(-c3c(NCC(O)c4cccc(Cl)c4)cc[nH]c3=O)[nH]c2c1 (configuration not stated)	
4.82	5.66	5.55	5.77	Cc1cc(C(=O)N(C)C)cc2[nH]c(-c3c(NCC(O)c4cccc(Cl)c4)cc[nH]c3=O)nc12 (configuration not stated)	
4.03	5.00	5.09	5.46	Cc1cc(C(=O)NC2CC2)cc2[nH]c(-c3c(NCC(O)c4cccc(Cl)c4)cc[nH]c3=O)nc12 (configuration not stated)	
5.01	5.80	5.46	6.32	Cc1cc(C(=O)NC2CCCC2)cc2[nH]c(-c3c(NCC(O)c4cccc(Cl)c4)cc[nH]c3=O)nc12 (configuration not stated)	
4.23	4.96	5.18	5.89	Cc1cc(C(=O)NC2CCCCC2)cc2[nH]c(-c3c(NCC(O)c4cccc(Cl)c4)cc[nH]c3=O)nc12 (configuration not stated)	
4.28	4.46	4.04	4.77	Cc1cc(C2=NCCN2C)cc2[nH]c(-c3c(NCC(O)c4cccc(Cl)c4)cc[nH]c3=O)nc12 (configuration not stated)	
5.00		4.17	5.33	Cc1cc(C2=NC(C)CN2)cc2[nH]c(-c3c(NCC(O)c4cccc(Cl)c4)cc[nH]c3=O)nc12 (configuration not stated)	
4.60	4.82	4.12	5.41	CNC(=N)c1cc(C)c2nc(-c3c(NCC(O)c4cccc(Cl)c4)cc[nH]c3=O)[nH]c2c1 (configuration not stated)	

Continued, compound first:

SMILES	pIC50 (Cytochrome P450 1A2)	pIC50 (Cytochrome P450 3A4)	pIC50 (Cytochrome P450 2C9)	pIC50 (Cytochrome P450 2C19)	pIC50 (Cytochrome P450 2D6)
Cc1cc(-n2ccnc2)cc2[nH]c(-c3c(N[C@H](CO)Cc4ccccc4)cc[nH]c3=O)nc12	> 7.40	7.22	> 7.40	> 7.40	6.25
Cc1cc(-c2ccccc2)cc2[nH]c(-c3c(N[C@H](CO)Cc4ccccc4)cc[nH]c3=O)nc12	6.24	5.44	5.64	6.28	
Cc1cc(-c2ccc(F)cc2)cc2[nH]c(-c3c(N[C@H](CO)Cc4ccccc4)cc[nH]c3=O)nc12	5.49	5.20	5.40	6.00	
Cc1cc(-n2ccnc2)cc2[nH]c(-c3c(NCC(O)c4cccc(Cl)c4)cc[nH]c3=O)nc12 (configuration not stated)	> 7.40	> 7.34	> 7.40	> 7.40	
Cc1c[nH]c(-c2cc(C)c3[nH]c(-c4c(NCC(O)c5cccc(Cl)c5)cc[nH]c4=O)nc3c2)n1 (configuration not stated)	5.24	6.44	5.11	5.70	
Cc1cc(-n2ccnc2)cc2nc(-c3c(NCc4ccccn4)cc[nH]c3=O)[nH]c12	> 7.52	7.10	> 7.52	7.00	5.24
Cc1cc(Br)cc2[nH]c(-c3c(N[C@H](CO)Cc4ccccc4)cc[nH]c3=O)nc12	7.28	5.51	6.14	6.49	
COc1ccc(-c2cc(C)c3nc(-c4c(N[C@H](CO)Cc5ccccc5)cc[nH]c4=O)[nH]c3c2)cc1	4.92	5.17	4.96	5.66	
